Measured values reported in US5013756A, “Catechol derivatives, a process of preparation thereof, and therapeutical compositions containing the same” (priority 1985, dated 1991).

Columns and labels:
[1] = target: T1, soybean lipoxygenase (Glycine max, UniProt P08170); assay: In vitro screening of compounds as potential inhibitors of soybean lipoxygenase (spectrophotometric assay, 15-HPETE at 236 nm); assay type: biochemical; settings: IC50 (concentration of 50% inhibition), pH 9.00, 10^-4 M arachidonic acid, 90 min, room temperature
T1 sequence (P08170 1-839): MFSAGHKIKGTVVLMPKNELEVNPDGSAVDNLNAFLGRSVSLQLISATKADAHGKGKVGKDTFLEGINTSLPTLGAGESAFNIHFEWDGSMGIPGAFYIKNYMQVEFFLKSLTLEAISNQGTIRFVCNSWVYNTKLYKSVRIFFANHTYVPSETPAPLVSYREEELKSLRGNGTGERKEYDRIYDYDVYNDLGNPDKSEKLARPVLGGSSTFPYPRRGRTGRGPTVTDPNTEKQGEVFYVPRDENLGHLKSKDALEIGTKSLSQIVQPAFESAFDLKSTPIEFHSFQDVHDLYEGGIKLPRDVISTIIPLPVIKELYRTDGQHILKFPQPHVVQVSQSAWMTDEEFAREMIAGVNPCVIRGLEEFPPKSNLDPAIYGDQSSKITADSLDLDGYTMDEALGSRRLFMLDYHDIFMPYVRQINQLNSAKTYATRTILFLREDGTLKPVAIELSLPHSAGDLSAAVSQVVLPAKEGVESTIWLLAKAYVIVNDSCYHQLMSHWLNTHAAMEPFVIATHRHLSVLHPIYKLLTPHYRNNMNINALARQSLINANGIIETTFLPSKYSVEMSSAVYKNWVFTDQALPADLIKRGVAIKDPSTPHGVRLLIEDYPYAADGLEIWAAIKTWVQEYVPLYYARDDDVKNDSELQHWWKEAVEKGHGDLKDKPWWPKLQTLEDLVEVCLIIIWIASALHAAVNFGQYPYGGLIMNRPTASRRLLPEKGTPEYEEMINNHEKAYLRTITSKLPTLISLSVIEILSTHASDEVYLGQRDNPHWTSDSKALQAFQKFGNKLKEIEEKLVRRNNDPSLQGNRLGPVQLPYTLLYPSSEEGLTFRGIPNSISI
Experimental: A spectrophotometric method has been developed to determine the enzyme activity according to Corey E.J. et al. (J. Amer. Chem. Soc, 104, 1750-1752; 1982). In a final volume of 1.8 ml was mixed 0.2 M of aerated Borax buffer pH =9.00 with 500 units of soybean lipoxygenase. When inhibitors were tested, they were added in 0.6 ml at final concentrations ranging from 10^-3 M to 10^-8 M followed by a preincubation of 10 minutes at room temperature. The reaction was initiated by 10^-4 M arachidonic acid. Following incubation at room temperature for 90 minutes, 15-HPETE was determined by absorbance measurements at 236 nm.
This method was validated with known inhibitors of lipoxygenase. For each test substance a control was included with boiled lipoxygenase in order to take into account any absorption of the compound at the wavelength used.

[2] = target: T2, 5-lipoxygenase (human leucocytes) (Homo sapiens, UniProt P09917); assay: Experiment No. 1: inhibition of 5-lipoxygenase in human leucocytes stimulated by ionophore (5-HETE, LTB4); assay type: cell-based; settings: Experiment No. 1, 5-HETE, ionophore A23187 alone
T2 construct: human leucocytic lipoxygenase; endogenous in cells; host or cells: human (polynuclear) leucocytes
T2 sequence (P09917 1-674): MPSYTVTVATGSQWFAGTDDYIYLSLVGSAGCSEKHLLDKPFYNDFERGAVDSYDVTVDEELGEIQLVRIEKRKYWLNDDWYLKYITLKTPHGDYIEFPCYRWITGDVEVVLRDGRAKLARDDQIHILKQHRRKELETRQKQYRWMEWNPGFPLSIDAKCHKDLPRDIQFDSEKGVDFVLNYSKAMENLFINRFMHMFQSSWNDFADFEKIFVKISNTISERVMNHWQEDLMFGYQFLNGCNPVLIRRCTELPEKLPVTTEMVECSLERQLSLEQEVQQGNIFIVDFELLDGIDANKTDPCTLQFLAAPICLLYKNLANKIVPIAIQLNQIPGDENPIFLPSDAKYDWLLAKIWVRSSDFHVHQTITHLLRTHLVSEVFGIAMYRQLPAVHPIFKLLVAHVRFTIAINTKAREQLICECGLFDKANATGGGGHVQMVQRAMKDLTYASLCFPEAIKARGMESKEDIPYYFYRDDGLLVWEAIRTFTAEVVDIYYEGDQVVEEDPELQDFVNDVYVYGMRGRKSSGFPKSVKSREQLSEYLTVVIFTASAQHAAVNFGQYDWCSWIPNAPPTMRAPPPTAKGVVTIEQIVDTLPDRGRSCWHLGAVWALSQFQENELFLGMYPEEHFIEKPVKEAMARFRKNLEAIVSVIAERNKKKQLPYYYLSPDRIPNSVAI
Experimental: (§1) (a) Inhibition on 5- and 12- lipoxygenases human polynuclear
(§2) Protocol for experiment No. 1:
(§3) 2. Stimulation with 1 μg ionophore (A23187)/ml for 4 minutes.
(§4) 3. Stopping of the incubation with 1 volume of methanol.
(§5) 4. Analysis by RP-HPLC, colomn C18, 5 μm.
(§6) 5. Measurement of the height of the peaks and comparison with the internal standard (PGB2).

[3] = target: T3, 12-lipoxygenase (human leucocytes) (Homo sapiens, UniProt P18054); assay: Experiment No. 1: inhibition of 12-lipoxygenase in human leucocytes stimulated by ionophore (12-HETE); assay type: cell-based; settings: Experiment No. 1, 12-HETE, ionophore A23187 alone
T3 construct: human leucocytic lipoxygenase; endogenous in cells; host or cells: human (polynuclear) leucocytes
T3 sequence (P18054 1-663): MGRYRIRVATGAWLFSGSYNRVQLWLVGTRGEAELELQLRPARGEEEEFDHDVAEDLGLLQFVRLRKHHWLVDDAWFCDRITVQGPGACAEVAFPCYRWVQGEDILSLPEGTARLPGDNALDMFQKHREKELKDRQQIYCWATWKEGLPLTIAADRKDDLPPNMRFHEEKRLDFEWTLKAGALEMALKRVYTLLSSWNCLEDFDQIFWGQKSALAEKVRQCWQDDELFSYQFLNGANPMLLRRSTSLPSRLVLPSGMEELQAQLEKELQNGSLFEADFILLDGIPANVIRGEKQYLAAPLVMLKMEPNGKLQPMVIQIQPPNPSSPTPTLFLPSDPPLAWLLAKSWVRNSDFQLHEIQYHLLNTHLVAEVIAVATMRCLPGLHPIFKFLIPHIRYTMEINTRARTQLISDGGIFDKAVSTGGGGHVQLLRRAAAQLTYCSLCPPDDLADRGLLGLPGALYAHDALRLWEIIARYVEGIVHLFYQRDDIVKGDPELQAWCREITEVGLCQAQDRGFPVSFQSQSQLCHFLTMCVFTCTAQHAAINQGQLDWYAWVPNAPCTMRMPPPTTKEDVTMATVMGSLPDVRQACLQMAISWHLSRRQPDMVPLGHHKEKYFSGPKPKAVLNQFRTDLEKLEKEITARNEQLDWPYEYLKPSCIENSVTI
Experimental: as §1, §2, §3, §4, §5, §6

[4] = target: xanthine oxidase (Bos taurus, UniProt P80457); assay: In vitro screening of compounds as potential inhibitors of xanthine oxidase; assay type: biochemical; settings: xanthine oxidase 0.01 units/ml, xanthine 5.10^-5 M, pH 7.4
Source text: A unit of activity was defined as a change of 0.001 units/minute.

[5] = target: T4, 15-lipoxygenase (human leucocytes) (Homo sapiens, UniProt P16050); assay: Experiment No. 2: inhibition of 15-lipoxygenase in human leucocytes stimulated by ionophore and arachidonic acid (15-HETE); assay type: cell-based; settings: Experiment No. 2, 15-HETE, ionophore A23187 and arachidonic acid
T4 construct: endogenous in cells; host or cells: human (polynuclear) leucocytes
T4 sequence (P16050 1-662): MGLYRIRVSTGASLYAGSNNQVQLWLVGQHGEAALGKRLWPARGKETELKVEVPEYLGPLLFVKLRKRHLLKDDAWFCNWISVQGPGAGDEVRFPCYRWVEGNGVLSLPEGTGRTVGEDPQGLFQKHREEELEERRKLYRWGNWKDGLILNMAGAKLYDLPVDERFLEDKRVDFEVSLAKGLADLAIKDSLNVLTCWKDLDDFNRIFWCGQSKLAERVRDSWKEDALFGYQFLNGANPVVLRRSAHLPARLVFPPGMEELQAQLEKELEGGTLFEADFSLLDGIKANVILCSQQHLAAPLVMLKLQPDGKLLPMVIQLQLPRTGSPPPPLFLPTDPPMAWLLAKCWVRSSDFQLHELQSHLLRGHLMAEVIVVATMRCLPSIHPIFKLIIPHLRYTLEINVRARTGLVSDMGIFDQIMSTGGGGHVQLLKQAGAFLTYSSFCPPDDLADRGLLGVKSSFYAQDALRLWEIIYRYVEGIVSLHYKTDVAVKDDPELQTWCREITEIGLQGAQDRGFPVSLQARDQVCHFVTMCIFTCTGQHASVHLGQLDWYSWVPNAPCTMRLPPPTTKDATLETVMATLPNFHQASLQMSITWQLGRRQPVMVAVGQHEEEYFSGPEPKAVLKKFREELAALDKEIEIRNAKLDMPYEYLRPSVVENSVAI
Experimental: (§7) (b) Inhibition on 5-, 12- and 15- lipoxygenases human polynuclear
(§8) Protocol for experiment No. 2:
(§9) 2. Stimulation with 10 μg of arachidonic acid and 1 μg of ionophore (A23187)/ml for 4 minutes.
(§10) 3. Stopping of the incubation with 1 volume of methanol and analysis by RP-HPLC.
(§11) 4. Measurement of the height of the peaks and comparison with the internal standard (PGB2).
(§12) It will be noted that in experiment No. 1, the leucocytes have been stimulated by the ionophore alone whereas in experiment No. 2, the cells have been stimulated with ionophore and arachidonic acid.

[6] = target: T2, 5-lipoxygenase (human leucocytes); assay: Experiment No. 2: inhibition of 5-lipoxygenase in human leucocytes stimulated by ionophore and arachidonic acid (5-HETE, LTB4); assay type: cell-based
Experimental: as §7, §8, §9, §10, §11, §12

[7] = test system: HHT (human leucocytes); assay: Experiment No. 2: HHT formation in human leucocytes stimulated by ionophore and arachidonic acid; assay type: cell-based; settings: Leucocyte, ionophore A23187 and arachidonic acid
Experimental: as §7, §8, §9, §10, §11

[8] = target: T3, 12-lipoxygenase (human leucocytes); assay: Experiment No. 2: inhibition of 12-lipoxygenase in human leucocytes stimulated by ionophore and arachidonic acid (12-HETE); assay type: cell-based; settings: Experiment No. 2, 12-HETE, ionophore A23187 and arachidonic acid
Experimental: as §7, §8, §9, §10, §11, §12

[9] = test system: guinea pig ileum; settings: histamine relative to LTC 4, molar basis; cited from earlier work
[10] = target: T5, cyclooxygenase (human platelets microsomes) (Homo sapiens, UniProt P23219); assay: Cycloxygenase inhibition in human platelets microsomes; assay type: biochemical; settings: cyclooxygenase (PGE2/TxB2), pH 7.9, 37° C.
T5 construct: human platelets microsomes; from tissue; host or cells: human platelet microsomes (microsomal powder)
Experimental: The enzymatic assay was carried out in silanized glassware according to the procedure of P. Ho, P. Walters and H, Sullivan (Prostaglandins 12, 951 1976). The reaction mixture containing 50 mM Tris HCl buffer, pH 7.9, 5mM 2-Tryptophan, […] methemoglobin, 0.2 mg of microsomal powder, and the test compound in a total volume of 0.2 ml was incubated at 37° C. for 5 minutes before the addition of 10 μl of 20 μM^14 C arachidonic acid (0.08 μCI). After 5 minute incubation, the reaction was terminated by the addition of 10 μl of 1M citric acid.
The mixture was extracted four times with 0.5 ml of anhydrous diethyl ether and dried with sodium sulphate. The residue was resuspended in approximately 40 μl of ether and submitted to chromatography on silica gel plates. The elution system consisted of diethyl ether/methanol/acetic acid (90:1:2). The RF values were measured relative to arachidonic acid. Thin layer chromatography plates (TLC) were exposed on LKB ultrafilm for about 24 hours. Partial identification of the spots were carried out by running standards (PGA2, PGB2, PGE2, PGF2c, PXB2, arachidonic acid) in the same solvent system. Quantitative results were obtained by scanning the developed film with a transmission densitometer (EC Apparatus 910) interfaced with a Hewlett Packard 3390A integrator.
The activity of the substances of the cyclooxygenase is quantified by the 2 spots corresponding to PGE2 and TxB2 (ratio PGE2 /TxB2).

T5 sequence (P23219 24-599): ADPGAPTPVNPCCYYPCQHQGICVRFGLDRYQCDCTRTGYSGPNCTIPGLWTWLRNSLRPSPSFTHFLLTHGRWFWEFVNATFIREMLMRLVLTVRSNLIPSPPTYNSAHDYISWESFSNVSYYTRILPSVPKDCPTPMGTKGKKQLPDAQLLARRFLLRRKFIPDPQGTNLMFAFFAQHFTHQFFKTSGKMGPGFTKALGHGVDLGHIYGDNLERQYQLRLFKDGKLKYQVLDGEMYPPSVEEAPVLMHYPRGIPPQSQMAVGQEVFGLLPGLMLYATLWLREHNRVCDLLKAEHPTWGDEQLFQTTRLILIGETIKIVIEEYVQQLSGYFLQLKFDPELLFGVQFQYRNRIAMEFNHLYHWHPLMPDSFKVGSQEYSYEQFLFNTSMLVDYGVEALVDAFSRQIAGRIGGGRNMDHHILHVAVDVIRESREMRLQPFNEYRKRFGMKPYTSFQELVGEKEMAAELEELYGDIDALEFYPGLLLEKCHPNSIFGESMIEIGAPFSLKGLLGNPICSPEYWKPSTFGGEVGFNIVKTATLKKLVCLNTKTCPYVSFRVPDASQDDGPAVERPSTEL
xanthine oxidase, sequence (P80457 whole entry): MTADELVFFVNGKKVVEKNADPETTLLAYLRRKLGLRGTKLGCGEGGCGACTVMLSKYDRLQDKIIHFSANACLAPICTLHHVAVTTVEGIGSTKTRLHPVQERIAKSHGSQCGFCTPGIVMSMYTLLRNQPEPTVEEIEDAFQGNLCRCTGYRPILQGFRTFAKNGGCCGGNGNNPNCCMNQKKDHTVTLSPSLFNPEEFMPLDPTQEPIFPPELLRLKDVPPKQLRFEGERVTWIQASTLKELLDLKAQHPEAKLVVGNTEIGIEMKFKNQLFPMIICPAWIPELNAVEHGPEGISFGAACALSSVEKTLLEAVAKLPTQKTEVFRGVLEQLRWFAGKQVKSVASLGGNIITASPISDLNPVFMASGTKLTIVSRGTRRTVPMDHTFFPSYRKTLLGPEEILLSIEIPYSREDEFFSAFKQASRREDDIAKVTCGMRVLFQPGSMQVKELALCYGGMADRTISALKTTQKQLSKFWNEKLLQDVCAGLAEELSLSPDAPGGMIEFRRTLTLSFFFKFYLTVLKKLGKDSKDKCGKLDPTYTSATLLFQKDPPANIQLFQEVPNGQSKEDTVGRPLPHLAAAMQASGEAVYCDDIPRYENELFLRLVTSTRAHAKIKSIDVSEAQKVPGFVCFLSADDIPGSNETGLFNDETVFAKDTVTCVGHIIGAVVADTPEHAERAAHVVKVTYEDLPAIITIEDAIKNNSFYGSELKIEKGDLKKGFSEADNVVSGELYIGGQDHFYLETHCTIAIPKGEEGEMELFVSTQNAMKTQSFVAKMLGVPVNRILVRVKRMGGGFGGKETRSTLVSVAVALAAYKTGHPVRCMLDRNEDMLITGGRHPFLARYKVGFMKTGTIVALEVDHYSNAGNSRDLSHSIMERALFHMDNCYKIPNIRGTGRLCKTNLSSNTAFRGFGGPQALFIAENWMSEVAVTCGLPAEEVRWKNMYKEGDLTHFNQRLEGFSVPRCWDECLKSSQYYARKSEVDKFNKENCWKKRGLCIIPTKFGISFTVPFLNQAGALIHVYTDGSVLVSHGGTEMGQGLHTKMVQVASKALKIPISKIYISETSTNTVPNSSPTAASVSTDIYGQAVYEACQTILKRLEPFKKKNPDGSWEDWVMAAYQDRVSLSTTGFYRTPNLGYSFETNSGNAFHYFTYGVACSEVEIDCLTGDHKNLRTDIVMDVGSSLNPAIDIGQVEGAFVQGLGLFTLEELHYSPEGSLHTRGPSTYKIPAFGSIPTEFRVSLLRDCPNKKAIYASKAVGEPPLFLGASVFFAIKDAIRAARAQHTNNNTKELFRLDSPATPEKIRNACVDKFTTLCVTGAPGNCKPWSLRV

S=C(N=Nc1ccccc1)NNc1ccccc1 [Diphenylthiocarbazone, reference compound] showed an IC50 [1] of 1610 nM.
Oc1ccc(S)cc1O [drawing 31] showed an IC50 [2] of 2000 nM and an IC50 [3] of 2000 nM.
For Oc1ccc(S)cc1O [drawing 27], the IC50 [4] was 237000 nM.
With CCCCCCC(C)Sc1ccc(O)c(O)c1 (centres unmarked) [drawing 9] the IC50 [1] was 27600 nM.
Work on CCCCCCC(C)Sc1ccc(O)c(O)c1 (centres unmarked) [drawing 34] yielded an IC50 [5] of 10000 nM, an IC50 ([6]; Experiment No. 2, 5-HETE, ionophore A23187 and arachidonic acid, read-out: IC50 5-HETE) of 1000 nM and an IC50 ([6]; Experiment No. 2, LTB4, ionophore A23187 and arachidonic acid, read-out: IC50 LTB4 (converted)) of 1000 nM. The IC50 [7] was 2000 nM and the IC50 [8] was 2000 nM.
In the case of NCCc1c[nH]cn1 [histamine], the “times less active than LTC 4 on a molar basis” value [9] is listed as 200 times.
CCC(C)CSc1ccc(O)c(O)c1 (centres unmarked) [drawing 7] showed an IC50 [1] of 104000 nM.
For Oc1ccc(S)cc1O [drawing 6], the IC50 [1] was 93000 nM.
CCCCCCC(C)Sc1ccc(O)c(O)c1 (centres unmarked) [drawing 23] gave an IC50 [10] of 3460 nM.
CC1CCC(C(C)C)C(Sc2ccc(O)c(O)c2)C1 (centres unmarked) [drawing 8] gave an IC50 [1] of 24100 nM.
For CCC(C)CSc1ccc(O)c(O)c1 (centres unmarked) [drawing 30], the IC50 [2] was 1000 nM and the IC50 [3] was 1000 nM.
